{"source": "ChEMBL document CHEMBL1128249", "about": "“2,4-Diamino-5-substituted-quinazolines as inhibitors of a human dihydrofolate reductase with a site-directed mutation at position 22 and of the dihydrofolate reductases from Pneumocystis carinii and Toxoplasma gondii” (J Med Chem, 1995)", "key": {"Dihydrofolate reductase [1]": {"biological_target": "Dihydrofolate reductase (Homo sapiens, UniProt P00374)", "test": "Inhibitory activity against Leu22-Phe mutant human Dihydrofolate reductase"}, "Dihydrofolate reductase [2]": {"biological_target": "T1, Dihydrofolate reductase (Homo sapiens, UniProt P00374)", "T1 sequence (P00374 whole entry)": "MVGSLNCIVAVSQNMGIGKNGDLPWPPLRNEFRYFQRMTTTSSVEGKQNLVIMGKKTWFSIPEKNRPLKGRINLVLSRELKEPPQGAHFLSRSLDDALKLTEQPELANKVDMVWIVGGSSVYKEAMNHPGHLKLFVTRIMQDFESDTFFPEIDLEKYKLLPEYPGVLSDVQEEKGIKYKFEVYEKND", "test": "Inhibitory compound against Wild-type human DHFR."}, "Dihydrofolate reductase [3]": {"biological_target": "T2, Dihydrofolate reductase (Pneumocystis carinii, UniProt P16184)", "T2 sequence (P16184 whole entry)": "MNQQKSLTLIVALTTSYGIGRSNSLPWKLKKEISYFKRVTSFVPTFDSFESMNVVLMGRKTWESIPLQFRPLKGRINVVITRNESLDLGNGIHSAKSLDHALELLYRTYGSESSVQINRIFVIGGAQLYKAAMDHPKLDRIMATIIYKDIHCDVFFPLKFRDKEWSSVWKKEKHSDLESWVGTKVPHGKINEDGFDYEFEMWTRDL", "description": "Inhibitory activity against Pneumocystis carinii Dihydrofolate reductase"}, "Dihydrofolate reductase [4]": {"biological_target": "T3, Dihydrofolate reductase (Rattus norvegicus, UniProt Q920D2)", "T3 sequence (Q920D2 whole entry)": "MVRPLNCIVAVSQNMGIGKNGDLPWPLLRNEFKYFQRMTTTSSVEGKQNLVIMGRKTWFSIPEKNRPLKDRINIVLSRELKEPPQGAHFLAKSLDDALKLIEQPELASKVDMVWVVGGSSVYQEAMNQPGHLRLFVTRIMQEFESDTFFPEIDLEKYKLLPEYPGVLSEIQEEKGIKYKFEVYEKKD", "description": "Inhibitory activity against rat liver Dihydrofolate reductase"}, "[5]": {"biological_target": "T4, Bifunctional dihydrofolate reductase-thymidylate synthase (Toxoplasma gondii, UniProt Q07422)", "T4 sequence (Q07422 whole entry)": "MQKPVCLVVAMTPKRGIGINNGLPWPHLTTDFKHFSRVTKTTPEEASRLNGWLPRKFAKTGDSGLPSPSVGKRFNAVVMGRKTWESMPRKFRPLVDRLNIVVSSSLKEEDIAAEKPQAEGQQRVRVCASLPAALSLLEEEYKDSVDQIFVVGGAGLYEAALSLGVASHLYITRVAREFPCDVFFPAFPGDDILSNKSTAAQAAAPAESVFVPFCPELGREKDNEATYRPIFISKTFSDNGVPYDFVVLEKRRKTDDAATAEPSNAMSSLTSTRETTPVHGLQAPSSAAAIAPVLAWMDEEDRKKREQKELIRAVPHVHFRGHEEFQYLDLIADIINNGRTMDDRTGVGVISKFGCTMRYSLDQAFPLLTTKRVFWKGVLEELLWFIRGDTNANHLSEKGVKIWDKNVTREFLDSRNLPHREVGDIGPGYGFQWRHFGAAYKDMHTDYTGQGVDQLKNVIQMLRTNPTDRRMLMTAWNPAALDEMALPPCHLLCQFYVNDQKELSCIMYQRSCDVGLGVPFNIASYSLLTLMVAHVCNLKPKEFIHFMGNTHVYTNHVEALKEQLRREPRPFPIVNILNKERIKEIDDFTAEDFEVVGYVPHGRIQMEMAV", "description": "Inhibitory activity against Toxoplasma gondii Dihydrofolate reductase"}, "Dihydrofolate reductase [6]": {"biological_target": "T1, Dihydrofolate reductase", "test": "Inhibitory activity against Wild-type human DHFR"}}, "note": "pIC50, pKi: −log10 of the molar value."}
{"compound": "COc1ccc(OC)c(CCc2cccc3nc(N)nc(N)c23)c1", "values": [{"measurement": "pKi", "setting": "Dihydrofolate reductase [1]", "result": 8.38}, {"measurement": "pKi", "setting": "Dihydrofolate reductase [2]", "result": 7.39}, {"measurement": "pIC50", "setting": "Dihydrofolate reductase [3]", "result": 4.72}, {"measurement": "pIC50", "setting": "Dihydrofolate reductase [4]", "result": 5.39}, {"measurement": "pIC50", "setting": "[5]", "result": 5.23}]}
{"compound": "Nc1nc(N)c2c(C#Cc3ccccc3)cccc2n1", "values": [{"measurement": "pKi", "setting": "Dihydrofolate reductase [1]", "result": 7.02}, {"measurement": "pKi", "setting": "Dihydrofolate reductase [6]", "result": "< 6.30"}, {"measurement": "pIC50", "setting": "Dihydrofolate reductase [3]", "result": "< 4.52"}, {"measurement": "pIC50", "setting": "Dihydrofolate reductase [4]", "result": "< 4.52"}, {"measurement": "pIC50", "setting": "[5]", "result": "< 4.52"}]}
{"compound": "Nc1nc(N)c2c(CNc3ccc(C(=O)NC(CCC(=O)O)C(=O)O)cc3)cccc2n1", "note": "(centres undefined)", "values": [{"measurement": "pKi", "setting": "Dihydrofolate reductase [1]", "result": 8.57}, {"measurement": "pKi", "setting": "Dihydrofolate reductase [6]", "result": 9.27}]}
{"compound": "COc1ccc(OC)c(NCc2cccc3nc(N)nc(N)c23)c1", "values": [{"measurement": "pKi", "setting": "Dihydrofolate reductase [1]", "result": 7.48}, {"measurement": "pIC50", "setting": "Dihydrofolate reductase [3]", "result": "< 5.30"}, {"measurement": "pIC50", "setting": "Dihydrofolate reductase [4]", "result": "< 5.30"}, {"measurement": "pIC50", "setting": "[5]", "result": "< 5.30"}]}
{"compound": "Nc1nc(N)c2cc(CNc3ccc(C(=O)NC(CCC(=O)O)C(=O)O)cc3)ccc2n1", "note": "(centres undefined)", "values": [{"measurement": "pKi", "setting": "Dihydrofolate reductase [1]", "result": 11.00}, {"measurement": "pKi", "setting": "Dihydrofolate reductase [6]", "result": 12.05}]}
{"compound": "COc1cc(NCc2cccc3nc(N)nc(N)c23)cc(OC)c1OC", "values": [{"measurement": "pKi", "setting": "Dihydrofolate reductase [1]", "result": 6.51}, {"measurement": "pKi", "setting": "Dihydrofolate reductase [2]", "result": "< 6.30"}, {"measurement": "pIC50", "setting": "Dihydrofolate reductase [3]", "result": "< 4.70"}, {"measurement": "pIC50", "setting": "Dihydrofolate reductase [4]", "result": "< 4.70"}, {"measurement": "pIC50", "setting": "[5]", "result": "< 4.70"}]}
{"compound": "COc1ccc(OC)c(C#Cc2cccc3nc(N)nc(N)c23)c1", "values": [{"measurement": "pKi", "setting": "Dihydrofolate reductase [1]", "result": 6.85}, {"measurement": "pKi", "setting": "Dihydrofolate reductase [2]", "result": "< 6.30"}, {"measurement": "pIC50", "setting": "Dihydrofolate reductase [3]", "result": "< 4.74"}, {"measurement": "pIC50", "setting": "Dihydrofolate reductase [4]", "result": "< 4.74"}, {"measurement": "pIC50", "setting": "[5]", "result": "< 4.74"}]}
{"compound": "COc1cc(N(C)Cc2cccc3nc(N)nc(N)c23)cc(OC)c1OC", "values": [{"measurement": "pKi", "setting": "Dihydrofolate reductase [1]", "result": 7.31}, {"measurement": "pKi", "setting": "Dihydrofolate reductase [2]", "result": "< 6.30"}, {"measurement": "pIC50", "setting": "Dihydrofolate reductase [3]", "result": "< 4.70"}, {"measurement": "pIC50", "setting": "Dihydrofolate reductase [4]", "result": 4.28}, {"measurement": "pIC50", "setting": "[5]", "result": "< 4.70"}]}
{"compound": "Nc1nc(N)c2c(CCc3ccccc3)cccc2n1", "values": [{"measurement": "pKi", "setting": "Dihydrofolate reductase [1]", "result": 8.54}, {"measurement": "pKi", "setting": "Dihydrofolate reductase [2]", "result": 7.64}, {"measurement": "pIC50", "setting": "Dihydrofolate reductase [3]", "result": 5.49}, {"measurement": "pIC50", "setting": "Dihydrofolate reductase [4]", "result": 6.29}, {"measurement": "pIC50", "setting": "[5]", "result": 6.43}]}
{"compound": "COc1cc(CCc2cccc3nc(N)nc(N)c23)cc(OC)c1OC", "values": [{"measurement": "pKi", "setting": "Dihydrofolate reductase [1]", "result": 8.37}, {"measurement": "pKi", "setting": "Dihydrofolate reductase [2]", "result": 7.14}, {"measurement": "pIC50", "setting": "Dihydrofolate reductase [3]", "result": 4.85}, {"measurement": "pIC50", "setting": "Dihydrofolate reductase [4]", "result": 5.43}, {"measurement": "pIC50", "setting": "[5]", "result": 6.03}]}
{"compound": "COc1ccc(OC)c(N(C)Cc2cccc3nc(N)nc(N)c23)c1", "values": [{"measurement": "pKi", "setting": "Dihydrofolate reductase [1]", "result": 6.60}, {"measurement": "pKi", "setting": "Dihydrofolate reductase [2]", "result": "< 6.30"}, {"measurement": "pIC50", "setting": "Dihydrofolate reductase [3]", "result": "< 4.40"}, {"measurement": "pIC50", "setting": "Dihydrofolate reductase [4]", "result": 4.08}, {"measurement": "pIC50", "setting": "[5]", "result": "< 4.40"}]}
{"compound": "Nc1nc(N)c2c(/C=C/c3ccccc3)cccc2n1", "values": [{"measurement": "pKi", "setting": "Dihydrofolate reductase [1]", "result": 8.74}, {"measurement": "pIC50", "setting": "Dihydrofolate reductase [3]", "result": 5.00}, {"measurement": "pIC50", "setting": "Dihydrofolate reductase [4]", "result": 5.82}, {"measurement": "pIC50", "setting": "[5]", "result": 5.92}]}
{"compound": "COc1ccc(OC)c(Cc2cnc3nc(N)nc(N)c3c2C)c1", "note": "[PIRITREXIM]", "values": [{"measurement": "pKi", "setting": "Dihydrofolate reductase [1]", "result": 7.42}, {"measurement": "pKi", "setting": "Dihydrofolate reductase [6]", "result": 7.48}]}
